# Laboratory results taken from the NIST ThermoML archive (doi:10.1021/je050029o).
# ± gives the expanded uncertainty stated by the source.
# Details: 298.15 K; 101.33 kPa; Liquid; Pycnometric method
row,mass density [kg/m3],Compound
1,740.6 ± 1.7,COC(C)(C)C [2-methoxy-2-methylpropane]
2,679.5 ± 0.6,CCCCCCC [heptane]
3,786.8 ± 0.7,CO [methanol]
4,765.2 ± 0.7,CC1CCCCC1 [methylcyclohexane]
